Reference: patent US8318186B2, “Use of at least a fatty ester for preparing a composition designed to inhibit 5-α-reductase activity, in pharmacology, in particular dermatology, in cosmetics and as food additive” (Laboratoires Expanscience, priority 2000, dated 2012)

Target: T1, 5α-reductase (Homo sapiens, UniProt P18405)
T1 construct: endogenous in cells; host or cells: DU145 prostate carcinoma cells (ATCC HTB 81)
T1 sequence (P18405 1-259): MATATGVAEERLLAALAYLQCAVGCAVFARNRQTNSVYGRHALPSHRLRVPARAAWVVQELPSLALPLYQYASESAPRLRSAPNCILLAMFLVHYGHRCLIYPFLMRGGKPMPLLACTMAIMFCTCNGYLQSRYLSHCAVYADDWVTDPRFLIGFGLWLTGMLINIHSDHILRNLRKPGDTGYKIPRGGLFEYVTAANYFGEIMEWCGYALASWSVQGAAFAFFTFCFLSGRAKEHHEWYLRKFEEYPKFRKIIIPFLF
Experiment: Inhibition of the 5α-reductase of DU145 cells: quantity of 5-dihydrotestosterone formed from testosterone (RIA)
Type: cell-based
Description: The prostatic cells DU145 are derived from a tumor line obtained from a prostate carcinoma (ATCC No. HTB 81). The MEM medium (ref. 0410265), the glutamine and the gentamycin are from Gibco. The fetal calf serum (FCS) is from DAP and is used decomplementized ([…] at 56° C.). The plastics serving for the culture (dishes and plates) are from Costar. The testosterone is from Sigma.
A stock solution in ethanol at 10 mg/ml is prepared from each of the products tested.
The concentration range used for the experiments is the following: 0, 5, 10, 50, 100 and 500 micrograms/ml. (Dilution performed in the culture medium).
The volume of extract added per well being 20 microliters/well, the solutions to be prepared are concentrated 50×.
A stock solution of testosterone at 10 mM is prepared in ethanol. At the time of its use, this solution is diluted 1:1 000 in the culture medium and 10 microliters are added per well.
The prostatic cells DU145 are cultured at 37° C., 5% Co2 in an MEM medium containing glutamine (2 mM), gentamycin (50 micrograms/ml) and 10% FCS. Their subculture rate is 1:10.
Before starting the experiment, the cells are placed in culture in 6-well plates at the rate of 2×10^5 DU145 cells per well/1 ml of medium containing only 1% FCS. The cells are maintained for 3 days at 37° C., 5% CO2. […]

- IC50 (testosterone 0.1 micromolar, 3 hours, read-out: IC 50, conversion of testosterone to 5-dihydrotestosterone by the DU 145 cells (converted)): 1300 µM
Compound: CCCCCCCC/C=C\CCCCCCCC(=O)OC [Methyl oleate, methyl oleate]
- 5α-reductase inhibitory activity, in words (conclusions of Example 2): markedly less active than the methyl esters of avocado
